Measurements: US20240287138A1, “CYCLIC PEPTIDES FOR INHIBITING TNF RECEPTOR 1 ACTIVITY” (Merck Sharp & Dohme LLC, priority 2023, published 2024)
Where two headings read alike, the source gives them in different places. Numbered stars: 1 amine (or outer) side, 2 acyl side, 3 side chain; on linkers, the order of the positions; unused ones are H or OH. Bridge positions count the residues as written; N and C are the ends. Square brackets hold non-standard residues; d marks the D form. Peptide text beside a SMILES is read from it. * marks the point of attachment. Trp(βS-Me,7-OMe) = COc1cccc2c([C@H](C)[C@H](N)C(=O)O)c[nH]c12; Trp(1-CH2COOH) = N[C@@H](Cc1cn(CC(=O)O)c2ccccc12)C(=O)O; Phe(4-SO2NH2) = N[C@@H](Cc1ccc(S(N)(=O)=O)cc1)C(=O)O; Trp(7-CN) = N#Cc1cccc2c(C[C@H](N)C(=O)O)c[nH]c12; Trp(7-Cl) = N[C@@H](Cc1c[nH]c2c(Cl)cccc12)C(=O)O; Phe(3-CONH2) = NC(=O)c1cccc(C[C@H](N)C(=O)O)c1; Phe(4-CONH2) = NC(=O)c1ccc(C[C@H](N)C(=O)O)cc1; Phe(4-COOH) = N[C@@H](Cc1ccc(C(=O)O)cc1)C(=O)O; X9 = CN(C)[C@@H]1C[C@H](C(=O)[*:2])N([*:1])C1; X23 = N[C@@H]1CCN([*:1])[C@H](C(=O)[*:2])C1; dPro(4S-NH2) = N[C@@H]1CN[C@@H](C(=O)O)C1; Pip(5R-OH) = O=C(O)[C@@H]1CC[C@@H](O)CN1; X1 = O=C([C@@H]1CC[C@H](N[*:1])C1)[*:2]; 4Pal = N[C@@H](Cc1ccncc1)C(=O)O; NMeE = CN[C@@H](CCC(=O)O)C(=O)O; dHyp = O=C(O)[C@H]1C[C@H](O)CN1; Ahp(2) = CCCCC[C@H](N)C(=O)O; Pip = O=C(O)[C@@H]1CCCCN1; αMeS = C[C@](N)(CO)C(=O)O; Carboxymethyl = O=C(O)C*; Nle = CCCC[C@H](N)C(=O)O; Sar = CNCC(=O)O

Experiments:
human TNFR2 ECD protein = biological target: T1, human TNFR2 ECD protein (Homo sapiens, UniProt P20333); assay: SPR off-target binding (selectivity) to human TNFR2 ECD
T1 construct: HRV 3C protease cleavage site (C); 6His (C, cleaved yes); made in house; host or cells: Sf21 insect cells (baculovirus), secreted
T1 sequence (P20333 23-257): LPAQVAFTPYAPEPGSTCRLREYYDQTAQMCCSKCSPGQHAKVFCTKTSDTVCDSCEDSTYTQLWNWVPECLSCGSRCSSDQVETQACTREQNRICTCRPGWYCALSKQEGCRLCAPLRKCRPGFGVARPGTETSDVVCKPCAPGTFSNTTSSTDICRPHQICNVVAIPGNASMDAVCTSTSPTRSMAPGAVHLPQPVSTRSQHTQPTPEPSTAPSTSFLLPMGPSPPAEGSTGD
Summary of the method: (§1)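 Insect-cell human receptor ECDs, enzymatically biotinylated, immobilized via streptavidin capture chip. Peptide binding and dissociation measured in RU in pH 7.4 HEPES buffer containing 2% DMSO; chip regenerated per analyte. Rate constants give affinity.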

[1] = biological target: T2, human TNFR1 extracellular domain (ECD) protein (Homo sapiens, UniProt P19438); assay: SPR binding affinity to captured human TNFR1 ECD
T2 construct: HRV 3C protease cleavage site (C); 6His (C, cleaved yes); made in house; host or cells: Sf21 insect cells (baculovirus), secreted
T2 sequence (P19438 30-211): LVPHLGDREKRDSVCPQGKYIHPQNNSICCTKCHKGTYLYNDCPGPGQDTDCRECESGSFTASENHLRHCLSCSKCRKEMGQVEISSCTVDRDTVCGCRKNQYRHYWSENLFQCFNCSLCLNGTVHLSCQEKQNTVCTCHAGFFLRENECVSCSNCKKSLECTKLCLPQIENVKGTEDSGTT
Summary of the method: as §1

[2] = biotinylated human TNFR2 ECD on streptavidin chip, read-out: SPR hTNFR2 KD
[3] = biotinylated human TNFR1 ECD on streptavidin chip, from kon and koff, read-out: SPR hTNFR1 KD

With `CCCC[C@@H]1NC(=O)[C@@H]2CC[C@@H](C2)NC(=O)[C@H]([C@@H](C)c2c[nH]c3c(OC)cccc23)NC(=O)CN(C)C(=O)[C@H](Cc2ccc(C(=O)O)cc2)NC(=O)[C@H](Cc2ccc(C(N)=O)cc2)NC(=O)[C@](C)(CO)NC(=O)[C@H](Cc2c[nH]c3c(Cl)cccc23)NC(=O)[C@H](Cc2ccncc2)NC(=O)[C@H](CC(N)=O)NC(=O)[C@H]2C[C@H](O)CN2C(=O)[C@H](Cc2c[nH]c3ccccc23)NC(=O)[C@@H]2CC[C@@H](O)CN2C(=O)[C@H](Cc2ccncc2)NC1=O` [SEQ ID NO. 53] (cyclo([4Pal][Trp(7-Cl)][αMeS][Phe(4-CONH2)][Phe(4-COOH)][Sar][Trp(βS-Me,7-OMe)][X1][Nle][4Pal][Pip(5R-OH)]W[dHyp]N)) the Kd (human TNFR2 ECD protein; [2]) was greater than 1000 nM and the Kd [1, 3] was 0.02 nM.
Molecule `CCCC[C@@H]1NC(=O)[C@@H]2CC[C@@H](C2)NC(=O)[C@H]([C@@H](C)c2c[nH]c3c(OC)cccc23)NC(=O)CN(C)C(=O)[C@H](Cc2cccc(C(N)=O)c2)NC(=O)[C@H](Cc2ccc(C(=O)O)cc2)NC(=O)[C@](C)(CO)NC(=O)[C@H](Cc2c[nH]c3c(Cl)cccc23)NC(=O)[C@H](Cc2ccncc2)NC(=O)[C@H](CC(N)=O)NC(=O)[C@H](CCC(=O)O)N(C)C(=O)[C@H](Cc2c[nH]c3ccccc23)NC(=O)[C@@H]2CCCCN2C(=O)[C@H](Cc2ccncc2)NC1=O` [SEQ ID NO. 221] (cyclo([4Pal][Pip]W[NMeE]N[4Pal][Trp(7-Cl)][αMeS][Phe(4-COOH)][Phe(3-CONH2)][Sar][Trp(βS-Me,7-OMe)][X1][Nle])) has a Kd (human TNFR2 ECD protein; [2]) greater than 1000 nM and a Kd [1, 3] of 0.14 nM.
`CCCC[C@@H]1NC(=O)[C@@H]2CC[C@@H](C2)NC(=O)[C@H]([C@@H](C)c2c[nH]c3c(OC)cccc23)NC(=O)CN(C)C(=O)[C@H](Cc2ccc(OCC(=O)O)cc2)NC(=O)[C@H](Cc2ccc(S(N)(=O)=O)cc2)NC(=O)[C@](C)(CO)NC(=O)[C@H](Cc2c[nH]c3c(C#N)cccc23)NC(=O)[C@H](Cc2ccc(OCC(=O)O)cc2)NC(=O)[C@H](CC(N)=O)NC(=O)[C@H]2C[C@H](N)CN2C(=O)[C@H](Cc2cn(CC(=O)O)c3ccccc23)NC(=O)[C@@H]2CC[C@@H](O)CN2C(=O)[C@H](Cc2ccncc2)NC1=O` [SEQ ID NO. 18] (cyclo([4Pal][Pip(5R-OH)][Trp(1-CH2COOH)][dPro(4S-NH2)]NY(Carboxymethyl)[Trp(7-CN)][αMeS][Phe(4-SO2NH2)]Y(Carboxymethyl)[Sar][Trp(βS-Me,7-OMe)][X1][Nle])) gave a Kd (human TNFR2 ECD protein; [2]) greater than 1000 nM and a Kd [1, 3] of 0.05 nM.
`CCCCC[C@@H]1NC(=O)[C@@H]2CC[C@@H](C2)NC(=O)[C@H]([C@@H](C)c2c[nH]c3c(OC)cccc23)NC(=O)CN(C)C(=O)[C@H](Cc2cccc(C(N)=O)c2)NC(=O)[C@H](Cc2ccc(C(N)=O)cc2)NC(=O)[C@](C)(CO)NC(=O)[C@H](Cc2c[nH]c3c(C#N)cccc23)NC(=O)[C@H](Cc2ccc(C(=O)O)cc2)NC(=O)[C@H](CC(N)=O)NC(=O)[C@H]2C[C@@H](N(C)C)CN2C(=O)[C@H](Cc2c[nH]c3ccccc23)NC(=O)[C@@H]2CC[C@@H](O)CN2C(=O)[C@H](Cc2ccncc2)NC1=O` [SEQ ID NO. 84] (cyclo([4Pal][Pip(5R-OH)]W[X9]N[Phe(4-COOH)][Trp(7-CN)][αMeS][Phe(4-CONH2)][Phe(3-CONH2)][Sar][Trp(βS-Me,7-OMe)][X1][Ahp(2)])) was tested, and the Kd (human TNFR2 ECD protein) was greater than 1000 nM and the Kd [1] was 0.02 nM.
`CCCC[C@@H]1NC(=O)[C@@H]2CC[C@@H](C2)NC(=O)[C@H]([C@@H](C)c2c[nH]c3c(OC)cccc23)NC(=O)CN(C)C(=O)[C@H](Cc2ccc(C(=O)O)cc2)NC(=O)[C@H](Cc2ccc(C(N)=O)cc2)NC(=O)[C@](C)(CO)NC(=O)[C@H](Cc2c[nH]c3c(C#N)cccc23)NC(=O)[C@H](Cc2ccc(C(=O)O)cc2)NC(=O)[C@H](CC(N)=O)NC(=O)[C@H]2C[C@H](N)CN2C(=O)[C@H](Cc2cn(CC(=O)O)c3ccccc23)NC(=O)[C@@H]2CC[C@@H](O)CN2C(=O)[C@H](Cc2ccncc2)NC1=O` [SEQ ID NO. 104] (cyclo([4Pal][Pip(5R-OH)][Trp(1-CH2COOH)][dPro(4S-NH2)]N[Phe(4-COOH)][Trp(7-CN)][αMeS][Phe(4-CONH2)][Phe(4-COOH)][Sar][Trp(βS-Me,7-OMe)][X1][Nle])) showed a Kd (human TNFR2 ECD protein; [2]) greater than 1000 nM and a Kd [1, 3] of 0.02 nM.
Work on `CCCC[C@@H]1NC(=O)CSC[C@@H](C(N)=O)NC(=O)[C@H]([C@@H](C)c2c[nH]c3c(OC)cccc23)NC(=O)CN(C)C(=O)[C@H](Cc2ccc(O)cc2)NC(=O)[C@H](Cc2ccc(C(=O)O)cc2)NC(=O)[C@](C)(CO)NC(=O)[C@H](Cc2c[nH]c3c(Cl)cccc23)NC(=O)[C@H](Cc2ccncc2)NC(=O)[C@H](CC(N)=O)NC(=O)[C@H](CCC(=O)O)N(C)C(=O)[C@H](Cc2c[nH]c3ccccc23)NC(=O)[C@@H]2C[C@H](N)CCN2C(=O)[C@H](Cc2ccncc2)NC1=O` [SEQ ID NO. 271] ({CH2CO}-[Nle][4Pal][X23]W[NMeE]N[4Pal][Trp(7-Cl)][αMeS][Phe(4-COOH)]Y[Sar][Trp(βS-Me,7-OMe)]C-NH2; thioether N-14) yielded a Kd (human TNFR2 ECD protein) greater than 1000 nM and a Kd [1] of 0.28 nM.
